The source of these data is patent publication US6667303B1, “Aryl substituted 1,4-diazepanes and method of use thereof” (Wyeth, priority 2001, dated 2003).

The target in one test is T1, human 5-hydroxytryptamine2C (h5HT2C) receptor (Homo sapiens, UniProt P28335).
T1 construct: expressed in transfected cells; host or cells: CHO (Chinese Hamster Ovary) cells; membrane preparation
T1 sequence (P28335 33-458): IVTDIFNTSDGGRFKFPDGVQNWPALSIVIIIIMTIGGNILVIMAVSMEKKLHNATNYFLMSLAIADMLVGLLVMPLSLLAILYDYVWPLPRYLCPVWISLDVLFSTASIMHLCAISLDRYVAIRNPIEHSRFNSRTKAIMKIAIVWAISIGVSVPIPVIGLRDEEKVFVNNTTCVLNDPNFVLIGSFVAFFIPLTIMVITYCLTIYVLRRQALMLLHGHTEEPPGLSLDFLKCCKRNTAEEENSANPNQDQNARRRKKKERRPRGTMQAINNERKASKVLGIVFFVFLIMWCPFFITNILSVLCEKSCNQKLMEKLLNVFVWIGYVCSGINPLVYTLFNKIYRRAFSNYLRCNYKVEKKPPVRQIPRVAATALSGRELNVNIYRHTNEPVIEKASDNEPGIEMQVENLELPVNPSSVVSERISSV
Briefly: 5HT2C receptor binding assay ([125I] DOI displacement).
Conditions: not given
The procedure:
To determine for compounds of Formula (I) the affinity for the 5HT2C receptor, the following 5HT2C receptor binding assay was performed. A CHO (Chinese Hamster Ovary) cell line transfected with the cDNA expressing the human 5-hydroxytryptamine2C (h5HT2C) receptor was maintained in DMEM (Dulbecco's Modified Eagle Media) supplied with fetal calf serum, glutamine, and the markers: guaninephosphoribosyl transferase (GTP) and hypoxanthinethymidine (HT). The cells were allowed to grow to confluence in large culture dishes with intermediate changes of media and splitting. Upon reaching confluence, the cells were harvested by scraping. The harvested cells were suspended in half volume of fresh physiological phosphate buffered saline (PBS) solution and centrifuged at low speed (900×g). This operation was repeated once more. The collected cells were then homogenized with a polytron at setting #7 for 15 sec in ten volumes of 50 mM Tris.HCl, pH 7.4 and 0.5 mM EDTA. The homogenate was centrifuged at 900×g for 15 min to remove nuclear particles and other cell debris. The pellet was discarded and the supernatant fluid recentrifuged at 40,000×g for 30 min. The resulting pellet was resuspended in a small volume of Tris.HCl buffer and the tissue protein content was determined in aliquots of 10-25 microliter (μl) volumes. Bovine Serum Albumin (BSA) was used as the standard in the protein determination by the method of Lowry et al., (J. Biol. Chem., 193:265 (1951)). The volume of the suspended cell membranes was adjusted with 50 mM Tris.HCl buffer containing: 0.1% ascorbic acid, 10 mM pargyline and 4 mM CaCl2 to give a tissue protein concentration of 1-2 mg per ml of suspension. The preparation membrane suspension (many times concentrated) was aliquoted in 1 ml volumes and stored at −70° C. until used in subsequent binding experiments.
Binding experiments were performed in a 96 well microtiter plate format, in a total volume of 200 μl. To each well was added: 60 μl of incubation buffer made in 50 mM Tris.HCl buffer, pH 7.4 and containing 4 mM CaCl2; 20 μl of […] DOI [1-(4-iodo-2,5-dimethoxyphenyl)-2-aminopropane] (S.A., 2200 Ci/mmol, NEN Life Science).
DOI. The reaction was initiated by the final addition of 100.0 μl of tissue suspension containing 50 μg of receptor protein. Nonspecific binding was measured in the presence of 1 μM unlabeled DOI added in 20.0 μl volume. Test compounds are added in […]. The mixture was incubated at room temperature for 60 min. The incubation was stopped by rapid filtration. The bound ligand-receptor complex was filtered off on a 96 well unifilter with a Packard® Filtermate 196 Harvester. The bound complex caught on the filter disk was dried in a vacuum oven heated to 60° C. and the radioactivity measured by liquid scintillation with 40 μl Microscint-20 scintillant in a Packard TopCount® equipped with six (6) photomultiplier detectors.
Description of this method can be found in Sanders-Bush, E. et al., Putative selective 5-HT2C antagonists block serotonin 5-HT1C receptors in the choroid plexus, J. Pharmacol. Exper. Ther., 247: 169-173 (1988), and Akiyoshi, J., et al., Effects of antidepressants on intracellular calcium mobilization in CHO cells transfected with the human 5-HT2C receptors, Biol. Psychiatry, 39:1000-1008 (1996).
Specific binding is defined as the total radioactivity bound less the amount bound in the presence of 1 μM unlabeled DOI. Binding in the presence of varying concentrations of test drugs was expressed as percent of specific binding in the absence of drug. […] Alternatively, a linear regression line of decline of data points was plotted, from which the IC50 value was read off the curve and the Ki value determined by solving the following equation: [formula]
As for `C=CCN1CCCN(c2ccc3c4c(cccc24)C(=O)N3CC2CCC2)CC1` [Example 22, 6-(4-allyl-1,4-diazepan-1-yl)-1-(cyclobutylmethyl)benzo[cd]indol-2(1H)-one], the Ki came out at 0.241 µM.
On the same count and under the same terms, under `COc1cc(CC(C)N)c(OC)cc1I` (stereo not shown) [DOI, 1-(4-iodo-2,5-dimethoxyphenyl)-2-aminopropane, reference compound] stands 0.0195 µM; under `CC(C)CN1CCCN(c2ccc3c4c(cccc24)C(=O)N3CC2CCC2)CC1` [Example 24, 1-(cyclobutylmethyl)-6-(4-isobutyl-1,4-diazepan-1-yl)benzo[cd]indol-2(1H)-one], 0.26 µM.
Consider `O=C1c2cccc3c(N4CCCN(CC5CCC5)CC4)ccc(c23)N1CC1CCC1` [Example 32, 1-(cyclobutylmethyl)-6-[4-(cyclobutylmethyl)-1,4-diazepan-1-yl]benzo[cd]indol-2(1H)-one], for which the Ki was found to be 0.256 µM.
`CCCCCN1CCCN(c2ccc3c4c(cccc24)C(=O)N3CCCC(F)(F)F)CC1` [Example 80, 6-(4-pentyl-1,4-diazepan-1-yl)-1-(4,4,4-trifluorobutyl)benzo[cd]indol-2(1H)-one] displayed a Ki of 0.19 µM.

Still in this test, the particulars now being: membranes of CHO cells expressing h5HT2C; radioligand [125I] DOI; room temperature, 60 min; read-out: 5HT2C Binding Affinity Ki.
As for `O=C1c2cccc3c(N4CCCN(CCc5ccccc5)CC4)ccc(c23)N1CCCC(F)(F)F` [Example 85, 6-[4-(2-phenylethyl)-1,4-diazepan-1-yl]-1-(4,4,4-trifluorobutyl)benzo[cd]indo-2(1H)-one], the inhibitory constant (Ki) is 0.112 µM.
Still for that read-out and setting: under `CCCN1CCCN(c2ccc3c4c(cccc24)C(=O)N3Cc2ccc(OC)cc2)CC1` [Example 88, 1-(4-methoxybenzyl)-6-(4-propyl-1,4-diazepan-1-yl)benzo[cd]indol-2(1H)-one] stands 0.243 µM; under `O=C1c2cccc3c(N4CCCN(CCc5ccccc5)CC4)ccc(c23)N1CC1CCC1` [Example 28, 1-(cyclobutylmethyl)-6-[4-(2-phenylethyl)-1,4-diazepan-1-yl]benzo[cd]indol-2(1H)-one], 0.178 µM.
Consider `COc1ccc(CN2C(=O)c3cccc4c(N5CCCN(CCCc6ccccc6)CC5)ccc2c34)cc1` [Example 11], for which the inhibition constant Ki worked out at 0.165 µM.
Same read-out and setting: for `COc1ccc(CN2C(=O)c3cccc4c(N5CCCN(CC6CCC6)CC5)ccc2c34)cc1` [Example 13, 6-[4-(cyclobutylmethyl)-1,4-diazepan-1-yl]-1-(4-methoxybenzyl)benzo[cd]indol-2(1H)-one] the value was 0.257 µM; for `CCCCCN1CCCN(c2ccc3c4c(cccc24)C(=O)N3CC)CC1` [Example 44, 1-ethyl-6-(4-pentyl-1,4-diazepan-1-yl)benzo[cd]indol-2(1H)-one], 0.247 µM.
The same measure, in the same setting: under `COc1ccc(CN2C(=O)c3cccc4c(N5CCCN(CC(C)(C)C)CC5)ccc2c34)cc1` [Example 5, 1-(4-methoxybenzyl)-6-(4-neopentyl-1,4-diazepan-1-yl)benzo[cd]indol-2(1H)-one] stands 0.132 µM.

Another test concerns the target T2, human serotonin 5HT2C receptor (Homo sapiens, UniProt P28335).
T2 construct: expressed in transfected cells; host or cells: CHO (Chinese Hamster Ovary) cells; membrane preparation
T2 sequence (P28335 33-458): T1 sequence (P28335 33-458)
Briefly: saturation binding with increasing concentrations of [125I] DOI.
Conditions: not given
The procedure:
To determine for compounds of Formula (I) the affinity for the 5HT2C receptor, the following 5HT2C receptor binding assay was performed. A CHO (Chinese Hamster Ovary) cell line transfected with the cDNA expressing the human 5-hydroxytryptamine2C (h5HT2C) receptor was maintained in DMEM (Dulbecco's Modified Eagle Media) supplied with fetal calf serum, glutamine, and the markers: guaninephosphoribosyl transferase (GTP) and hypoxanthinethymidine (HT). The cells were allowed to grow to confluence in large culture dishes with intermediate changes of media and splitting. Upon reaching confluence, the cells were harvested by scraping. The harvested cells were suspended in half volume of fresh physiological phosphate buffered saline (PBS) solution and centrifuged at low speed (900×g). This operation was repeated once more. […] The resulting pellet was resuspended in a small volume of Tris.HCl buffer and the tissue protein content was determined in aliquots of 10-25 microliter (μl) volumes. […]
The dissociation constant, KD of [^125I] […] Nonspecific binding was measured in the presence of 1 μM unlabeled DOI added in 20.0 μl volume. […] The bound complex caught on the filter disk was dried in a vacuum oven heated to 60° C. and the radioactivity measured by liquid scintillation with 40 μl Microscint-20 scintillant in a Packard TopCount® equipped with six (6) photomultiplier detectors.
For `COc1cc(CC(C)N)c(OC)cc1I` (stereo not shown) [[^125I] DOI, 1-(4-iodo-2,5-dimethoxyphenyl)-2-aminopropane], the Kd worked out at 0.0004 µM.
